The results in this text go back to patent US6403554B2, “Polyunsaturated fatty acid derivatives and their use” (Ardenia Investments Ltd., priority 1998, dated 2002).

SMILES strings stand for the structures.

Assay [1] concerns hemagglutinating antibodies in serum. The experiment in a line: Humoral immune response: titers of hemagglutinating antibodies in serum. It counts as in vivo, C57B1/6 mice. To be noted: for Amount of hemagglutinins: serum, female mice; for Effect, % on hemagglutinins: versus control. The protocol: (§1) 0.15 ml of compound 10 was administered intravenously to 6 mice females of CS7B1/6 line (weight 18-22 g) in doses of 45.5, 91 and 136.5 μg of compound 10 per capita for each testing group according to the dose. Simultaneously, a suspension of 5·10^7 sheep erythrocytes was injected intraperitoneally (0.2 ml per capita). Mice in the control group were injected intravenously with equal volume of saline. The effects of compound 10 on humoral immune response were analyzed both by counting the quantity of AFC in the spleen according to Cunningham (per 10^6 spleen cells and per spleen) and estimating the titers of hemagglutining antibodies in serum of the animals (Cunningham A. J., Nature, 1965, Vol.207, No 5001. P.1106-1107), while the titers of hemagglutinating antibodies were evaluated according to litterature (Evans J. et al., Cell, 1974; Vol 3., p.153-158, Feizi T., Menger E., Transfusion, 1970, Vol. 10, p.33-35,).
(§2) 0.15 ml of compound 11 was administered intravenously to 6 female mice of the C57B1/6 line (weight 18-22 g) in doses of 45.5, 91 and 136.5 μg of compound 11 per capita for each testing group according to the dose. Simultaneously, a suspension of 5·10^7 sheep erytrocytes was injected intraperitoneally (0.2 ml per capita). Mice in the control group were injected intravenously with an equal volume of saline. The effects of compound 11 on humoral immune response was analysed both by counting the quantity of AFC in the spleen according to Cunningham (per 10^6 spleen cells and per spleen) and estimating the titers of hemagglutining antibodies in serum of the animals.
as §2, with “12” for “11”, “erythrocytes” for “erytrocytes”, “analyzed” for “analysed”
as §2, with “compound 8” for “compound 11”, “sheep erythrocytes” for “sheep erytrocytes”, “Mice of” for “Mice in”, “response were analyzed” for “response was analysed”
as §2, with “compound 3” for “compound 11”, “Mice of” for “Mice in”, “with” for “with an”, “response were” for “response was”
(§3) 0.15 ml of compound 4 was administered intravenously to 6 female mice of the C57B1/6 line (weight 18-22 g) in a doses of 45.5, 91 and 136.5 μg of compound 4 per capita for each testing group according to the dose. Simultaneously, a suspension of 5·10^7 sheep erythrocytes was injected intraperitoneally (0.2 ml per capita). […]

The test system of assay [2] is antibody-forming cells (AFC) in the spleen. The experiment in a line: Humoral immune response: counting antibody-forming cells (AFC) in the spleen according to Cunningham, mice immunised with sheep erythrocytes. It counts as in vivo, C57B1/6 mice. The following applies: for Amount of antibody-forming cells per 10^6 spleen cells, M ± SEM (relative amount of AFC) / Amount of antibody-forming cells per spleen, M ± SEM (total AFC amount): 5-th day after injection, female mice; for Effect, % on AFC per 10^6 spleen cells / Effect, % on AFC per spleen: versus animals immunised only with sheep erythrocytes; for Dose at which immunostimulating effect in vivo is displayed (micelle form): compound alone. The protocol:
as §1, §2
as §2, with “12” for “11”, “erythrocytes” for “erytrocytes”, “analyzed” for “analysed”
as §2, with “compound 8” for “compound 11”, “sheep erythrocytes” for “sheep erytrocytes”, “Mice of” for “Mice in”, “response were analyzed” for “response was analysed”
as §2, with “compound 3” for “compound 11”, “Mice of” for “Mice in”, “with” for “with an”, “response were” for “response was”
as §3

On to `CC1=C(/C=C/C(C)=C/C=C/C(C)=C/C(=O)N[C@@H](Cc2ccc(OP(=O)(O)O)cc2)C(=O)O)C(C)(C)CCC1` (stereo in doubt) [Compound 4, N-(all-trans-retinoyl)-o-phospho-L-tyrosine], for which, in assay [1] (45.5 μg/mouse i.v.), the Amount of hemagglutinins stood at 6.0 ± 0.3 Log2 T and the “Effect, % on hemagglutinins” value is −3.2 p > 0.05%. In assay [1] (91 μg/mouse i.v.), the Amount of hemagglutinins was 6.5 ± 0.4 Log2 T and the “Effect, % on hemagglutinins” value was “+4.8 p > 0.05%”. For the same compound, the Amount of hemagglutinins in assay [1] (136.5 μg/mouse i.v.) is listed as 7.5±0.2 Log2 T. Further, in assay [2] (45.5 μg/mouse i.v.), the “Amount of antibody-forming cells per 10^6 spleen cells, M ± SEM (relative amount of AFC)” value is listed as 405.0±47.9; the “Amount of antibody-forming cells per spleen, M ± SEM (total AFC amount)” value (“Amount … per spleen, M ± SEM (total AFC amount)” for short) is given as 55.0±6.7 × 10^3; the “Effect, % on AFC per 10^6 spleen cells” value is given as −0.3 p >0.05%; the “Effect, % on AFC per spleen” value is given as −8.9 p > 0.05%. Further, in assay [2] (91 μg/mouse i.v.), the “Amount of antibody-forming cells per 10^6 spleen cells, M ± SEM (relative amount of AFC)” value was found to be 692.9±44.8 and the “Amount … per spleen, M ± SEM (total AFC amount)” value was 87.6±4.3 × 10^3. For the same compound, in assay [2] (136.5 μg/mouse i.v.), the “Amount of antibody-forming cells per 10^6 spleen cells, M ± SEM (relative amount of AFC)” value is 1354.3±99.9 and the “Amount … per spleen, M ± SEM (total AFC amount)” value was 138.9±10.0 × 10^3. In addition, the “Dose at which immunostimulating effect in vivo is displayed (micelle form)” value in assay [2] is given as 91 μg/mouse. For the same compound, in assay [2] (dose of 45.5 μg/mouse), the Immunogenic activity entry is listed as “no immunogenic activity”. Also, the immunostimulating action entry in assay [2] (doses of 91 and 136.5 μg/mouse) is listed as “high immunostimulating action”.

On to `CC/C=C\C/C=C\C/C=C\C/C=C\C/C=C\C/C=C\CCC(=O)N[C@@H](Cc1ccc(OP(=O)(O)O)cc1)C(=O)O` [Compound 12, N-docosahexaenoyl-o-phospho-L-tyrosine], for which, in assay [1] (45.5 μg/mouse i.v.), the Amount of hemagglutinins was 7.4 ± 0.3 Log2 T and the “Effect, % on hemagglutinins” value is reported as “+2.8 p >0.05%”. In assay [1] (91 μg/mouse i.v.), the Amount of hemagglutinins is listed as 7.4 ± 0.3 Log2 T and the “Effect, % on hemagglutinins” value is “+2.8 p > 0.05%”. Moreover, in assay [1] (136.5 μg/mouse i.v.), the Amount of hemagglutinins was found to be 7.8 ± 0.3 Log2 T and the “Effect, % on hemagglutinins” value is given as “+7.7 p > 0.05%”. Besides, in assay [2] (45.5 μg/mouse i.v.), the “Amount of antibody-forming cells per 10^6 spleen cells, M ± SEM (relative amount of AFC)” value is reported as 263.8±23.6; the “Amount … per spleen, M ± SEM (total AFC amount)” value was 31.8±2.8 × 10^3; the “Effect, % on AFC per 10^6 spleen cells” value is −9.4 p >0.05%; the “Effect, % on AFC per spleen” value is −9.1 p >0.05%. In assay [2] (91 μg/mouse i.v.), the “Amount of antibody-forming cells per 10^6 spleen cells, M ± SEM (relative amount of AFC)” value came to 307.8±30.9; the “Amount … per spleen, M ± SEM (total AFC amount)” value is 40.2±2.7 × 10^3; the “Effect, % on AFC per 10^6 spleen cells” value was “+5.7 p > 0.05%”; the “Effect, % on AFC per spleen” value is “+14.9 p > 0.05%”. Further, in assay [2] (136.5 μg/mouse i.v.), the “Amount of antibody-forming cells per 10^6 spleen cells, M ± SEM (relative amount of AFC)” value was determined as 682.6±33.3 and the “Amount … per spleen, M ± SEM (total AFC amount)” value is listed as 69.6±6.0 × 10^3. Moreover, the immunostimulating action result in assay [2] (dose of 136.5 μg/mouse) is “high immunostimulating action”. Also, in assay [2] (doses of 45.5 and 91 μg/mouse), the Immunogenic activity result is “no immunogenic activity”.

Compound `CC/C=C\C/C=C\C/C=C\CCCCCCCC(=O)N[C@@H](Cc1ccc(OP(=O)(O)O)cc1)C(=O)O` [Compound 20, N-linolenoyl-o-phospho-L-tyrosine] had an Amount of hemagglutinins in assay [1] (45.5 μg/mouse i.v.) of 7.4 ± 0.2 Log2 T. Moreover, in assay [1] (91 μg/mouse i.v.), the Amount of hemagglutinins came out at 7.5 ± 0.3 Log2 T and the “Effect, % on hemagglutinins” value is “+1.4 p > 0.05%”. Moreover, in assay [1] (136.5 μg/mouse i.v.), the Amount of hemagglutinins turned out to be 7.6 ± 0.4 Log2 T and the “Effect, % on hemagglutinins” value is reported as “+2.7 p > 0.05%”. In assay [2] (45.5 μg/mouse i.v.), the “Amount of antibody-forming cells per 10^6 spleen cells, M ± SEM (relative amount of AFC)” value is reported as 512.8±46.2; the “Amount … per spleen, M ± SEM (total AFC amount)” value is given as 46.4±4.8 × 10^3; the “Effect, % on AFC per 10^6 spleen cells” value was −9.8 p > 0.05%; the “Effect, % on AFC per spleen” value is given as −7.4 p > 0.05%. In addition, in assay [2] (91 μg/mouse i.v.), the “Amount of antibody-forming cells per 10^6 spleen cells, M ± SEM (relative amount of AFC)” value is 634.5±51.7; the “Amount … per spleen, M ± SEM (total AFC amount)” value is reported as 55.7±5.6 × 10^3; the “Effect, % on AFC per 10^6 spleen cells” value was “+11.6 p > 0.05%”; the “Effect, % on AFC per spleen” value is recorded as “+11.2 p > 0.05%”. Besides, in assay [2] (136.5 μg/mouse i.v.), the “Amount of antibody-forming cells per 10^6 spleen cells, M ± SEM (relative amount of AFC)” value is 845.1±43.1 and the “Amount … per spleen, M ± SEM (total AFC amount)” value was 75.8±7.7 × 10^3. For the same compound, the immunostimulating action entry in assay [2] (dose of 136.5 μg/mouse) is on record as “marked immunostimulating action”. The Immunogenic activity result in assay [2] (doses of 45.5 and 91 μg/mouse) is recorded as “no immunogenic activity”.

Take `CC1=C(/C=C/C(C)=C/C=C/C(C)=C\C(=O)NCCOP(=O)(O)O)C(C)(C)CCC1` [Compound 1a, N-(13-cis-retinoyl)-o-phospho-2-aminoethanol]: the Amount of hemagglutinins in assay [1] (45.5 μg/mouse i.v.) was 7.6 ± 0.3 Log2 T; in assay [1] (91 μg/mouse i.v.), 7.6 ± 0.2 Log2 T; in assay [1] (136.5 μg/mouse i.v.) it was 8.2 ± 0.4 Log2 T. Also, the “Effect, % on hemagglutinins” value in assay [1] (45.5 μg/mouse i.v.) was −1,3 p > 0.05%; in assay [1] (91 μg/mouse i.v.), −1,3 p > 0.05%; in assay [1] (136.5 μg/mouse i.v.), “+6,5 p > 0.05%”. For the same compound, in assay [2], the “Dose at which immunostimulating effect in vivo is displayed (micelle form)” value was determined as 91 μg/mouse.

`CC/C=C\C/C=C\C/C=C\CCCCCCCC(=O)NCCOP(=O)(O)O` [Compound 17, N-linolenoyl-o-phospho-2-aminoethanol]: the “Effect, % on hemagglutinins” value in assay [1] (91 μg/mouse i.v.) was “+2.6 p > 0.05%”. For the same compound, the “Effect, % on hemagglutinins” value in assay [1] (136.5 μg/mouse i.v.) is recorded as “+2.6 p > 0.05%”. Also, in assay [2] (45.5 μg/mouse i.v.), the “Amount of antibody-forming cells per 10^6 spleen cells, M ± SEM (relative amount of AFC)” value was 457.3±40.7; the “Amount … per spleen, M ± SEM (total AFC amount)” value is 51.1±4.4 × 10^3; the “Effect, % on AFC per 10^6 spleen cells” value is listed as −3.0 p > 0.05%; the “Effect, % on AFC per spleen” value is recorded as −7.4 p > 0.05%. In addition, in assay [2] (91 μg/mouse i.v.), the “Amount of antibody-forming cells per 10^6 spleen cells, M ± SEM (relative amount of AFC)” value stood at 523.8±45.3; the “Amount … per spleen, M ± SEM (total AFC amount)” value is 63.5±5.1 × 10^3; the “Effect, % on AFC per 10^6 spleen cells” value is given as “+11.1 p > 0.05%”; the “Effect, % on AFC per spleen” value is “+15.0 p > 0.05%”. For the same compound, in assay [2] (136.5 μg/mouse i.v.), the “Amount of antibody-forming cells per 10^6 spleen cells, M ± SEM (relative amount of AFC)” value was 619.6±38.9 and the “Amount … per spleen, M ± SEM (total AFC amount)” value is 71.6±4.7 × 10^3. Besides, the immunostimulating action result in assay [2] (dose of 136.5 μg/mouse) is “marked immunostimulating action”. Moreover, the Immunogenic activity entry in assay [2] (doses of 45.5 and 91 μg/mouse) was “no immunogenic activity”.
